These results are taken from patent publication US12655101B2, “Small molecules with antibacterial activity” (NEW MEXICO TECH UNIVERSITY RESEARCH PARK CORPORATION, priority 2021, dated 2026).

Values after ≈ are worked out from the molar mass of the structure shown. Read-outs that look alike come from different tables or passages of the source.

The subject of test [1] is A. baumannii ATCC BAA-1797. In words: MIC on A. baumannii ATCC BAA-1797. It is filed as cell-based. The protocol: A. baumannii: A. baumannii ATCC BAA-1797 was grown from a glycerol stock by placing a small volume of cells onto a MHA plate. The MHA plate was incubated overnight at 37° C. A single colony was used to inoculate MHB to obtain a bacterial broth suspension. The MHB broth suspension was grown at 37° C. on a rotary shaking incubator (100 rpm) for 12 hours. The bacterial cell concentration was adjusted to ˜5×10^5 CFU/mL in MHB or MHB+10%, 20% or 40% FBS using OD at 595 nm. 500 μL aliquots of the adjusted bacterial cell suspension were placed into borosilicate glass tubes. The cell suspensions were treated with a compound of interest, and the treatments were serially diluted two-fold. The culture tubes were incubated for 18 hours at 37° C. Efficacy was either assessed visually or by adding 10% v/v MTT (5 mg/mL stock) after the 18 hour incubation period. The cell suspensions were subsequently incubated for 10 minutes to allow the MTT reagent to carry out the colorimetric reaction. The OD was read at 595 nm.

The test system of the next test is MRSA ATCC BAA-44. In words: MIC on MRSA ATCC BAA-44. It is filed as cell-based, S. aureus. The conditions noted are these: for MIC: Staphylococcus aureus. As to the method:
MRSA BAA-44: MRSA ATCC BAA-44 was grown from a glycerol stock by placing a small volume of cells onto a Mueller-Hinton agar plate (MHA). The MHA plate was incubated overnight at 37° C. A single colony was used to inoculate Mueller-Hinton broth (MHB) to obtain a bacterial broth suspension. The MHB broth suspension was grown at 37° C. on a rotary shaking incubator (100 rpm) for 12 hours. The bacterial cell concentration was adjusted to ˜5×10^5 colony forming units per milliliter (CFU/mL) in MHB−/+10, 20, or 40% FBS using optical density (OD) at 595 nm. 500 μL aliquots of the adjusted bacterial cell suspension were placed into borosilicate glass tubes. The cell suspensions were treated with 100 μM compound of interest and serially diluted two-fold. The culture tubes were incubated for 18 hours at 37° C. Efficacy was either assessed visually or by adding 10% v/v MTT (5 mg/mL stock) after the 18 hour incubation period, where the cell suspensions were subsequently incubated for 10 minutes to allow the MTT reagent to carry out the colorimetric reaction.

For a further test, the system named is S. aureus. In words: Evolution of resistance in S. aureus over 32 days. It is filed as cell-based. The note with it: for MIC: Staphylococcus aureus; for development of resistance (increase in MIC): 32 days of sub-inhibitory exposure. An excerpt:
Over a period of 32 days, S. aureus cells were exposed to sub-inhibitory concentrations of the indicated compound, norfloxacin, or oxacillin and sub-cultured at the newly emerged, sub-inhibitory concentration.

Setting [2] is: Acinetobacter baumannii, ATCC 1797 / ATCC BAA-1797, 0% FBS, read-out: MIC (μM) in MDR A. baumannii ATCC 1797 0% FBS.
Setting [3] is: Acinetobacter baumannii, ATCC 1797 / ATCC BAA-1797, read-out: MIC (μM) in MDR A. baumannii ATCC 1797 40% FBS, 40% FBS.
Setting [4] is: 10% FBS, read-out: MIC (μM) in MRSA BAA-44 10% FBS.
[5] abbreviates: 0% FBS, read-out: MIC (μM) in MDR A. baumannii ATCC 1797 0% FBS.
[6] abbreviates: no serum (note in the cell), read-out: MIC (μM) in MRSA BAA-44.
Setting [7] is: in 40% FBS (note in the cell), read-out: MIC (μM) in MRSA BAA-44.
Where [8] appears, read: 0 h, read-out: Initial MIC Day 0.

For orientation: MIC means the lowest concentration that inhibits growth of the organism. In the case of `COc1ccc(N/N=C/c2c[nH]c3cccc(OCc4ccccc4)c23)cc1` [Compound 30, (E)-4-(benzyloxy)-3-((2-(4-methoxyphenyl) hydrazineylidene)methyl)-1H-indole], the MIC in test [1] (setting [2]) was more than 100 µM; in test [1] (Acinetobacter baumannii, ATCC 1797 / ATCC BAA-1797, 10% FBS, read-out: MIC (μM) in MDR A. baumannii ATCC 1797 10% FBS), more than 100 µM; in test [1] (setting [3]), more than 100 µM; in test [1] (Acinetobacter baumannii, ATCCBAA1797, 18 h, read-out: MIC in the presence of 40% FBS, A. baumannii ATCC BAA-1797, 40% FBS), 100 µM; in test [1] (Acinetobacter baumannii, ATCCBAA1797, A. baumannii ATCC BAA-1797, absence of serum, read-out: MIC in the absence of serum), 20 µM (≈ 7.43 µg/mL); in the test with MRSA ATCC BAA-44 (setting [4]) it was more than 100 µM.

Turning to `Fc1ccc(N/N=C/c2c[nH]c3cccc(OCc4ccccc4)c23)cc1` [Compound 31, (E)-4-(benzyloxy)-3-((2-(4-fluorophenyl)hydrazineylidene)methyl)-1H-indole], the minimal inhibitory concentration (MIC) in test [1] (setting [5]) was 12.5 µM (≈ 4.49 µg/mL); in the test on MRSA ATCC BAA-44 (setting [4]), approximately 100 µM (≈ 35.9 µg/mL).

On to `Nc1cccc2c(S(=O)(=O)N/N=C/c3c[nH]c4cccc(OCc5ccccc5)c34)cccc12` [Compound 33, (E)-5-amino-N′-((4-(benzyloxy)-1H-indol-3-yl)methylene)naphthalene-1-sulfonohydrazide], for which the MIC (in test [1] (setting [2]); in test [1] (setting [3]); in the test with MRSA ATCC BAA-44 (setting [6])) was more than 100 µM throughout.

As to `Brc1ccc(N/N=C/c2c[nH]c3cccc(OCc4ccccc4)c23)cc1` [Compound 34, (E)-4-(benzyloxy)-3-((2-(4-bromophenyl)hydrazineylidene)methyl)-1H-indole], the MIC in test [1] (setting [5]) is on record as 3 µM (≈ 1.26 µg/mL). The “MIC (μM) in MDR A. baumannii ATCC 1797 40% FBS” value in test [1] (40% FBS) came out at 50 µM (≈ 21 µg/mL). Further, in the test on MRSA ATCC BAA-44 (no serum (note in the cell)), the “MIC (μM) in MRSA BAA-44” value is 25 (no serum) μM.

In the case of `C(=N\NC1=NCCCN1)/c1c[nH]c2cccc(OCc3ccccc3)c12` [Compound 35, (E)-2-(2-((4-(benzyloxy)-1H-indol-3-yl)methylene)hydrazineyl)-3,4,5,6-tetrahydropyrimidin-1-ium 2,2,2-trifluoroacetate], the minimal inhibitory concentration (MIC) was more than 100 µM in test [1] (setting [2]), more than 100 µM in test [1] (setting [3]) and 50 µM (≈ 17.4 µg/mL) in the test with MRSA ATCC BAA-44 (setting [6]).

Regarding `C(=N\Nc1ncccn1)/c1c[nH]c2cccc(OCc3ccccc3)c12` [Compound 36, (E)-4-(benzyloxy)-3-((2-(pyrimidin-2-yl)hydrazineylidene)methyl)-1H-indole], the minimal inhibitory concentration (MIC) (in test [1] (setting [2]); in test [1] (setting [3]); in the test on MRSA ATCC BAA-44 (setting [6])) was more than 100 µM in each case.

For `FC(F)(F)c1ccc(N/N=C/c2c[nH]c3cccc(OCc4ccccc4)c23)cc1` [Compound 37, (E)-4-(benzyloxy)-3-((2-(4-(trifluoromethyl)phenyl) hydrazineylidene)methyl)-1H-indole], the results for the MIC (in test [1] (setting [2]); in test [1] (setting [3]); in the test on MRSA ATCC BAA-44 (setting [6])) were more than 100 µM, more than 100 µM and 12.5 µM (≈ 5.12 µg/mL), respectively.

For `Nc1ccc(N/N=C/c2c[nH]c3cccc(OCc4ccccc4)c23)cc1` [Compound 38, (E)-4-(2-((4-(benzyloxy)-1H-indol-3-yl)methylene)hydrazineyl) benzenaminium chloride], the minimal inhibitory concentration (MIC) (in test [1] (setting [2]); in test [1] (setting [3]); in the test with MRSA ATCC BAA-44 (setting [6])) was more than 100 µM each time.

On to `CC(=O)O.Nc1ccc(N/N=C/c2c[nH]c3cccc(OCc4ccccc4)c23)cc1` [Compound 39, (E)-1-(4-aminophenyl)-2-((4-(benzyloxy)-1H-indol-3-yl)methylene)hydrazin-1-ium acetate], for which the minimum inhibitory concentration (MIC) in test [1] (setting [5]) is more than 100 µM. Further, in test [1] (40% FBS), the “MIC (μM) in MDR A. baumannii ATCC 1797 40% FBS” value is more than 100 µM. The “MIC (μM) in MRSA BAA-44” value in the test on MRSA ATCC BAA-44 (no serum (note in the cell)) is on record as 50 (no serum) μM.

For `C(=N\Nc1ncccn1)/c1c[nH]c2cccc(OCc3ccccc3)c12.O=C(O)C(F)(F)F` [Compound 40, (E)-2-((4-(benzyloxy)-1H-indol-3-yl)methylene)-1-(pyrimidin-2-yl)hydrazin-1-ium 2,2,2-trifluoroacetate], the minimum inhibitory concentration (MIC) (in test [1] (setting [5]); in the test with MRSA ATCC BAA-44 (setting [4])) was more than 100 µM each time. Moreover, in test [1] (40% FBS), the “MIC (μM) in MDR A. baumannii ATCC 1797 40% FBS” value was more than 100 µM.

With `NCCCC(=O)Oc1cccc2[nH]cc(/C=N/Nc3ccc(F)cc3)c12` [Compound 41, (E)-3-((2-(4-fluorophenyl)hydrazineylidene)methyl)-1H-indol-4-yl 4-aminobutanoate], the MIC in test [1] (setting [2]) is 12.5 µM (≈ 4.43 µg/mL); in test [1] (setting [3]) it was more than 100 µM. Moreover, the “MIC (μM) in MRSA BAA-44” value with MRSA ATCC BAA-44 (no serum (note in the cell)) is recorded as 100 no serum μM.

For `Cl.NCCCC(=O)Oc1cccc2[nH]cc(/C=N/Nc3ccc(F)cc3)c12` [Compound 42, (E)-4-((3-((2-(4-fluorophenyl)hydrazineylidene)methyl)-1H-indol-4-yl)oxy)-4-oxobutan-1-aminium chloride], the MIC in test [1] (setting [5]) was less than 25 µM; in the test with MRSA ATCC BAA-44 (in FBS (note in the cell, percentage not given), read-out: MIC (μM) in MRSA BAA-44), 100 µM. Further, the “MIC (μM) in MDR A. baumannii ATCC 1797 40% FBS” value in test [1] (40% FBS) is more than 100 µM. In addition, in the test on MRSA ATCC BAA-44 (no serum (note in the cell)), the “MIC (μM) in MRSA BAA-44” value is less than 25 in no μM.

For the compound `Brc1ccc2c(N/N=C/c3c[nH]c4cccc(OCc5ccccc5)c34)ccnc2c1` [Compound 43, (E)-4-(2-((4-(benzyloxy)-1H-indol-3-yl)methylene)hydrazineyl)-7-bromoquinoline], the MIC was 6 µM (≈ 2.83 µg/mL) in test [1] (setting [2]); more than 100 µM in test [1] (setting [3]); more than 100 µM with MRSA ATCC BAA-44 (18 h, read-out: MIC in the presence of 40% FBS, MRSA ATCC BAA-44, 40% FBS); 6 µM (≈ 2.83 µg/mL) with MRSA ATCC BAA-44 (MRSA ATCC BAA-44, absence of serum, read-out: MIC in the absence of serum); more than 100 µM with MRSA ATCC BAA-44 (setting [7]); 6 µM (≈ 2.83 µg/mL) with MRSA ATCC BAA-44 (setting [6]).

For the compound `Cn1cc(/C=N/Nc2ccc(F)cc2)c2c(OCc3ccccc3)cccc21` [Compound 44, (E)-4-(benzyloxy)-3-((2-(4-fluorophenyl)hydrazineylidene)methyl)-1-methyl-1H-indole], the minimal inhibitory concentration (MIC) (in test [1] (setting [2]); with MRSA ATCC BAA-44 (setting [4])) was less than 100 µM in each case.

Consider `Cn1cc(/C=N/Nc2ccc(Br)cc2)c2c(OCc3ccccc3)cccc21` [Compound 45, (E)-4-(benzyloxy)-3-((2-(4-bromophenyl)hydrazineylidene)methyl)-1-methyl-1H-indole], for which the MIC in test [1] (setting [2]) is 25 µM (≈ 10.9 µg/mL); in test [1] (setting [3]), 50 µM (≈ 21.7 µg/mL); in the test on MRSA ATCC BAA-44 (setting [7]), more than 100 µM; in the test with MRSA ATCC BAA-44 (setting [6]) it was 25 µM (≈ 10.9 µg/mL).

`Clc1ccc(/N=N/c2c[nH]c3ccccc23)cc1` [Compound 48, (E)-3-((4-chlorophenyl)diazenyl)-1H-indole]: the MIC in the test with S. aureus (setting [8]) and in the test with S. aureus (read-out: Final MIC Day 32) was 8 µM each time.

`Clc1ccc(Oc2c(-c3ccc(Cl)cc3)[nH]c3ccc(Cl)cc23)cc1` [Compound 50, 5-chloro-3-(4-chlorophenoxy)-2-(4-chlorophenyl)-1H-indole]: the minimum inhibitory concentration (MIC) with S. aureus (setting [8]) is 0.25 to 0.5 µM; with S. aureus (read-out: Final MIC Day 32), more than 32 µM.

As for `CCn1cc(C(=O)O)c(=O)c2cc(F)c(N3CCNCC3)cc21` [Norfloxacin, reference compound], the “development of resistance (increase in MIC)” value in the test on S. aureus is “Dramatic resistance”. For the same compound, the minimal inhibitory concentration (MIC) in the test on S. aureus (setting [8]) is 2 µg/mL; in the test with S. aureus (read-out: Final MIC Day 32), more than 100 µg/mL.

On to `Cc1onc(-c2ccccc2)c1C(=O)N[C@@H]1C(=O)N2[C@@H]1SC(C)(C)[C@@H]2C(=O)O` [Oxacillin, reference compound], for which the “development of resistance (increase in MIC)” value in the test with S. aureus is reported as “Dramatic resistance”. The MIC in the test on S. aureus (setting [8]) is 0.25 µg/mL; in the test on S. aureus (read-out: Final MIC Day 32), more than 200 µg/mL.
